Target: Protein arginine N-methyltransferase 5 (Homo sapiens, UniProt O14744)
Assay: Revised Biochemical Assay
Method: Compounds of the invention may be tested for in vitro activity in the following assay: A histone H4 derived peptide is used as substrate (amino acid sequence: […]N H2). Full-length PRMT5 enzyme (NCBI Reference sequence NP_006100.2) was co-expressed with His6-MEP50 in insect cells and purified via Nickel immobilized metal affinity and gel filtration chromatography (the enzyme).The 6 μL reactions are run in Greiner brand black 384-well low volume assay plates. All reactions contained assay buffer (phosphate buffered saline, 0.01% (v/v) Tween-20, 0.01% (w/v) albumin from chicken egg white, 1 mM Dithiothreitol, 1 μM peptide substrate, 1 μM S-Adenosyl methionine, and 15 ng/reaction enzyme, with the enzyme being omitted from negative control reactions. Compounds were added in a volume of 100 nL from dilution series prepared in DMSO, positive and negative control reactions receiving the same volume DMSO without compound. The plates were sealed with adhesive seals and incubated for 4 hours at 37 degree Celsius. Reaction progress was measured using the Transcreener EPIGEN methyltransferase assay (BellBrook Labs, Madison, Wis.) as recommended by the manufacturer. To each reaction 2 μL detection mix were added, containing coupling enzymes, fluorescence polarisation tracer, and AMP antibody. […]

Sequence of Protein arginine N-methyltransferase 5 (O14744 whole entry): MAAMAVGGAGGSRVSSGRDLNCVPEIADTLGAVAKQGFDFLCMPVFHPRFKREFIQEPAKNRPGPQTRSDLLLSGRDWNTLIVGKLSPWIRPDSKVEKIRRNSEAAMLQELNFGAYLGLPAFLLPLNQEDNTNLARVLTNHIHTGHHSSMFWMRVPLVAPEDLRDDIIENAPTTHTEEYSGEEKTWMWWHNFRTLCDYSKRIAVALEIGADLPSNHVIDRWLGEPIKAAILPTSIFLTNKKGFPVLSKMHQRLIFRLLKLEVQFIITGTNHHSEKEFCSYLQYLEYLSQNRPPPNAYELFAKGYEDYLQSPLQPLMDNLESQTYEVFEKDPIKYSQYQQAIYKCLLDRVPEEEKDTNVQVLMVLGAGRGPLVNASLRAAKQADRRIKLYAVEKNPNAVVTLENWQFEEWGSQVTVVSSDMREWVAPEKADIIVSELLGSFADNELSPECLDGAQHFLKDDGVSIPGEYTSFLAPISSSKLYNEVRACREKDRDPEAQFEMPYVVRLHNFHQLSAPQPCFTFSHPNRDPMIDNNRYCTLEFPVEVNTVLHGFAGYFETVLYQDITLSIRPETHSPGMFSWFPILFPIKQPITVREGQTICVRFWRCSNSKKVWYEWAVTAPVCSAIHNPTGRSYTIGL

## COC(=O)N1CCC(N(C)C(=O)c2ccc(C(=O)NC[C@@H](O)[C@@H]3Cc4ccccc4CN3)cc2)CC1 [US10494376, Example 20]
  IC50: 11.7 µM

Reference: BindingDB's records for patent US10494376 (CTXT PTY. LTD., 2019)
